{
  "source": "paper PMC7995547",
  "about": "“ω‐Imidazolyl‐alkyl derivatives as new preclinical drug candidates for treating non‐alcoholic steatohepatitis” (Physiological Reports, 2021)",
  "key": {"[1]": {"test_system": "HFD‐induced NASH rat model (liver)", "experiment": "Liver histopathology, semi‐quantitative evaluation, NASH rat model", "format": "in vivo, Wistar rats", "set-up": "key to Steatosis score / Balooning score: 0, none; 1, ≤25%; 2, 26–50%; 3, ≥51–75% of liver parenchyma", "details": "for Balooning score / Inflammation score / Steatosis score: H.E.‐stained liver slices", "procedure": "(§1) Studies were done using Wistar rats of female sex by the Institute of Pharmacology and Biochemistry at Minsk. The animals were 80–90 days old and weighed 180–200 g. They had free access to a liquid Lieber‐DeCarli (LDC) diet (Lieber et al., 2004) and were housed under standard conditions meaning a 12‐h light/dark cycle at 22 ± 2°C and 55 ± 5% humidity.\n(§2) Group 1 was designated as the first control group; it was fed a normal standard solid diet. Group 2, as the second control group, was fed a standard amount of fat as a part of the liquid “physiological,” non‐high fat LDC diet. All other groups received the liquid ‘disease‐causing’ LDC diet (Table 2), including a high content of unsaturated fatty acids.\n(§3) Both LDC diets were in a liquid form as produced by ssniff‐Spezialdiäten GmbH, Soest (Germany). The feed was provided over the entire experimental period of 16 weeks; however, the corresponding experimental substances were only administered in the last four weeks (Figure 3).\n(§4) The experimental substances I‐ol, I‐an, and UDCA were dissolved in a 0.8% aqueous HPMC gel to obtain the following concentrations: (1) I‐ol at 0.4, 4, and 40 mg/kg body weight (b.w.), (2) I‐an at 0.4, 4, and 40 mg/kg b.w., and (3) UDCA at 40 mg/kg b.w. The Group‐2 and −3 rats received only HPMC as placebo. Each test encompassed 6–8 rats that were put up in a separate cage. The rats were fed ad libitum, and their intake per cage was controlled daily. In order to ensure an exact daily reproducible dosage, the experimental substances or only HPMC was administered intragastrically via oral gavage. Basically, the drug therapy of a chronic disease is the more efficient the higher the adherence of the affected patients. This is generally higher with peroral administration than with any other form of application. At the end of the experiment, the animals were sacrificed under fasting conditions, by aorta dissection and exsanguination, after anesthetizing with an intraperitoneal injection of 5% pentobarbital solution.\nPieces of liver tissue measuring 1 × 2 × 0.5 mm were chosen randomly and fixed for a week in the mixture of 1% formaldehyde and 1% paraformaldehyde in Sorensen's phosphate buffer (pH 7.4) (Morphisto GmbH, Frankfurt/Main). After this the pieces were kept in 2.5% glutaraldehyde in same buffer, rinsed and then post‐fixed in 1% solution of osmium tetroxide on the Sorensen's phosphate buffer (pH 7.4). After fixation, the liver samples were dehydrated and embedded in the pre‐polymerized mixture of methyl methacrylate and butyl methacrylate (1:4, v/v) containing 2,4‐dichlorbenzoyl peroxide as a catalyst.\n[…] A semi‐quantitative evaluation of the sections was performed according to the procedure described by Koppe et al. (Koppe et al., 2004)."}, "[2]": {"test_system": "HFD‐induced NASH rat model (liver)", "experiment": "Area of connective tissue in the liver (Mallory‐Azan staining), NASH rat model", "format": "in vivo, Wistar rats", "procedure": "as §1, §2, §3, §4\nLiver tissue sections were subject to the Mallory‐Azan (Heidenhain Azan) staining method for visualizing the connective tissues. This method was a modification of the original Mallory staining protocol, wherein azocarmin with a mixture of aniline blue and orange G was used. In this method, the collagen tissue and basophilic granules turn blue, the muscle tissue and acidophilic granules turn orange to red, and the cell nuclei and cytoplasm turn red. Elastic fibers remain unstained; however, they might turn yellow or pink. The proportion of positively stained liver tissue to the total area of the histological slide was determined quantitatively."}, "[3]": {"test_system": "CYP2E1", "set-up": "method as in Diesinger et al., 2020", "details": "ref Diesinger et al., 2020, cited from earlier work; for Inhibition of CYP2E1 (in words): in vitro experiments"}, "[4]": {"test_system": "HFD‐induced NASH rat model (liver and serum)", "experiment": "End products of fat metabolism (liver and serum lipids), NASH rat model", "format": "in vivo, Wistar rats", "details": "for Decrease in liver triglyceride levels compared to disease group / Reduction of the effect of HFD on liver triglyceride levels: average over doses (I‐ol, I‐an); for Decrease in liver triglyceride levels compared to disease group / Reduction of the effect of HFD on liver triglyceride levels / Decrease in liver phospholipid levels compared to disease group / Decrease in serum LDL cholesterol / Decrease in serum triglyceride levels compared to disease group: UDCA 40 mg/kg b.w.", "procedure": "as §1, §2, §3, §4\nThe activities of the liver enzymes aspartate aminotransferase (AST), alanine aminotransferase (ALT), alkaline phosphatase (AP), and γ‐glutamyl transferase (γ‐GT) as well as bilirubin and triglyceride levels in the serum were determined as described by the instructions of BIO‐LA‐tests kit (Erba Lachema, Brno, Czech Republic).\nExtraction of lipids was performed using a solvent composed of chloroform and methanol (2:1 v/v). Thin‐layer chromatography (TLC) was used to separate off neutral lipids and phospholipids. Silicagel G 60 plates (0.25 mm thick) were used. The lipids were separated by ascending chromatography in a system composed of hexane:diethylic ether:glacial acetic acid (73:25:2; v/v/v). They were visualized by iodine vapor and the spots corresponding to triglycerides and cholesterol were scraped off and eluted with methanol for spectrophotometric evaluation. Triglyceride and cholesterol levels were determined using the BIO‐LA‐test kit (Erba Lachema, Brno, Czech Republic). Phospholipid concentration was determined by measuring the levels of phosphomolybdate using an inorganic phosphate reagent containing molybdate (Findlay & Evans, 1987). VLDL level was determined by using the manganese precipitation method (Burstein & Scholnick, 1973) after partial modification (Hirano et al., 2003)."}, "[5]": {"details": "lowest concentration (0.4 mg/kg b.w.)"}},
  "data": [
    {"smiles": "OCCCCCCCCCCCCn1ccnc1", "note": "[I‐ol, 12‐imidazolyl‐1‐dodecanol]", "values": [
      {"measurement": "Balooning score", "setting": "[1]; 0.4 mg/kg b.w. + HFD", "value": "1 (1, ≤25%)"},
      {"measurement": "Inflammation score", "setting": "[1]; 0.4 mg/kg b.w. + HFD", "value": "1–2"},
      {"measurement": "Steatosis score", "setting": "[1]; 0.4 mg/kg b.w. + HFD", "value": "0–1"},
      {"measurement": "Balooning score", "setting": "[1]; 4.0 mg/kg b.w. + HFD", "value": "1 (1, ≤25%)"},
      {"measurement": "Inflammation score", "setting": "[1]; 4.0 mg/kg b.w. + HFD", "value": "1 (1, <5 signs of inflammation)"},
      {"measurement": "Steatosis score", "setting": "[1]; 4.0 mg/kg b.w. + HFD", "value": 0},
      {"measurement": "Balooning score", "setting": "[1]; 40.0 mg/kg b.w. + HFD", "value": "1 (1, ≤25%)"},
      {"measurement": "Inflammation score", "setting": "[1]; 40.0 mg/kg b.w. + HFD", "value": "1 (1, <5 signs of inflammation)"},
      {"measurement": "Steatosis score", "setting": "[1]; 40.0 mg/kg b.w. + HFD", "value": "0–1"},
      {"measurement": "Effect on liver histology (in words)", "setting": "[1]; animals with NASH (HFD)", "value": "dose‐dependent reduction of the pathological signs"},
      {"measurement": "Decrease in area of connective tissue in the liver compared to disease group", "setting": "[2]; [5]", "value": 28, "unit": "%"},
      {"measurement": "Reduction of the effect of HFD on area of connective tissue in the liver", "setting": "[2]; [5]", "value": 72, "unit": "%"},
      {"measurement": "Inhibition of CYP2E1 (in words)", "setting": "[3]", "value": "strong inhibitors of CYP2E1"},
      {"measurement": "Binding strength to CYP2E1 (rank)", "setting": "[3]", "value": "highest affinity"},
      {"measurement": "Serum LDL cholesterol below the reference value of group 1", "setting": "[4]; average over doses", "value": 11, "unit": "%"},
      {"measurement": "Decrease in liver triglyceride levels compared to disease group", "setting": "[4]", "value": 18, "unit": "%"},
      {"measurement": "Reduction of the effect of HFD on liver triglyceride levels", "setting": "[4]", "value": 41, "unit": "%"},
      {"measurement": "Decrease in liver phospholipid levels compared to disease group", "setting": "[4]; average over doses", "value": "no therapeutic effect"},
      {"measurement": "Decrease in serum LDL cholesterol", "setting": "[4]; average over doses", "value": 28, "unit": "%"},
      {"measurement": "Decrease in serum triglyceride levels compared to disease group", "setting": "[4]; average over doses", "value": "no therapeutic effect"},
      {"measurement": "Reduction of serum VLDL level", "setting": "[4]; medium concentration (4 mg/kg b.w.)", "value": 19, "unit": "%"},
      {"measurement": "Liver cholesterol level below the reference value of group 1", "setting": "[4]; medium dose (4 mg/kg b.w.)", "value": 7, "unit": "%"},
      {"measurement": "Reduction of liver cholesterol level compared to disease group", "setting": "[4]; medium dose (4 mg/kg b.w.)", "value": 17, "unit": "%"}
    ]},
    {"smiles": "CCCCCCCCCCCCn1ccnc1", "note": "[I‐an, 1‐imidazolyldodecane]", "values": [
      {"measurement": "Balooning score", "setting": "[1]; 0.4 mg/kg b.w. + HFD", "value": "0–1"},
      {"measurement": "Inflammation score", "setting": "[1]; 0.4 mg/kg b.w. + HFD", "value": "1 (1, <5 signs of inflammation)"},
      {"measurement": "Steatosis score", "setting": "[1]; 0.4 mg/kg b.w. + HFD", "value": "0–1"},
      {"measurement": "Balooning score", "setting": "[1]; 4.0 mg/kg b.w. + HFD", "value": "1 (1, ≤25%)"},
      {"measurement": "Inflammation score", "setting": "[1]; 4.0 mg/kg b.w. + HFD", "value": "1 (1, <5 signs of inflammation)"},
      {"measurement": "Steatosis score", "setting": "[1]; 4.0 mg/kg b.w. + HFD", "value": "0–1"},
      {"measurement": "Balooning score", "setting": "[1]; 40.0 mg/kg b.w. + HFD", "value": "0–1"},
      {"measurement": "Inflammation score", "setting": "[1]; 40.0 mg/kg b.w. + HFD", "value": "1 (1, <5 signs of inflammation)"},
      {"measurement": "Steatosis score", "setting": "[1]; 40.0 mg/kg b.w. + HFD", "value": "0–1"},
      {"measurement": "Effect on area of connective tissue in the liver (in words)", "setting": "[2]; compound overall", "value": "no therapeutic effect"},
      {"measurement": "Inhibition of CYP2E1 (in words)", "setting": "[3]", "value": "strong inhibitors of CYP2E1"},
      {"measurement": "Dose dependence of the effect on liver phospholipid levels", "setting": "[4]; 0.4, 4, 40 mg/kg b.w.", "value": "strong and very highly significant (p < 0.001), linear, dose‐dependent effect"},
      {"measurement": "Reduction of the effect of HFD on liver phospholipid levels", "setting": "[4]; average over doses", "value": 53, "unit": "%"},
      {"measurement": "Serum triglyceride level below the reference value of group 1", "setting": "[4]; average over doses", "value": 4, "unit": "%"},
      {"measurement": "Decrease in liver triglyceride levels compared to disease group", "setting": "[4]", "value": 15, "unit": "%"},
      {"measurement": "Reduction of the effect of HFD on liver triglyceride levels", "setting": "[4]", "value": 33, "unit": "%"},
      {"measurement": "Decrease in liver phospholipid levels compared to disease group", "setting": "[4]; average over doses", "value": 13, "unit": "%"},
      {"measurement": "Decrease in serum LDL cholesterol", "setting": "[4]; average over doses", "value": "non‐significant trend toward lowering the serum LDL level"},
      {"measurement": "Decrease in serum triglyceride levels compared to disease group", "setting": "[4]; average over doses", "value": 12, "unit": "%"},
      {"measurement": "Liver phospholipid level above the reference value of group 1", "setting": "[4]; highest concentration (40 mg/kg b.w.)", "value": 3, "unit": "%"},
      {"measurement": "Liver cholesterol level below the reference value of group 1", "setting": "[4]; low dose (0.4 mg/kg b.w.)", "value": 8, "unit": "%"},
      {"measurement": "Reduction of liver cholesterol level compared to disease group", "setting": "[4]; low dose (0.4 mg/kg b.w.)", "value": 18, "unit": "%"}
    ]}
  ]
}
